Data: patent US20260256792A1, “TREATMENT OF CHRONIC SPONTANEOUS URTICARIA BY ADMINISTERING (R)-2-[3-[4-AMINO-3-(2-FLUORO-4-PHENOXY-PHENYL)PYRAZOLO[3,4-D]PYRIMIDIN-1-YL]PIPERIDINE-1-CARBONYL]-4-METHYL-4-[4-(OXETAN-3-YL)PIPERAZIN-1-YL]PENT-2-ENENITRILE” (priority 2023, published 2026)

Test system: moderate-to-severe chronic spontaneous urticaria (CSU)
Experiment: Phase 2 CSU study: urticaria activity score over 7 days (UAS7)
Type: in vivo, human
Set-up: key to UAS7 Median / UAS7 Change from baseline Median / UAS7 change from baseline, Q1 / UAS7 change from baseline, Q3 / UAS7 change from baseline, Max / UAS7 Change from baseline LS Mean (SE): UAS7 points; daily UAS score ranges 0–6 points/day, over 7 days
Source text: The study comprises a 12 week, randomized, double-blind, placebo-controlled, multi-center, dose-ranging efficacy and safety phase, followed by a 40 week open label extension (OLE) phase (see FIG. 1). The study consists of three phases and an optional OLE phase. […] Clinically, CSU is characterized by the spontaneous and recurrent appearance of pruritic hives. The proposed primary endpoints were the UAS7 at Week 12 in EU and EU reference countries and the ISS7 in the US. Regardless of where a participant was from, all assessments were the same. The UAS7 score is a composite score containing both the HSS7 and the ISS7. This allowed a global assessment of the two key components of urticaria: hives and itch. […] The UAS is a validated PRO measure. […] The daily UAS scores range from 0 to 6 point/day. […] Patients were to complete the UAS using the e-diary. […] The following secondary endpoints were to be analyzed using the same approach as for the primary endpoint: • Change from baseline in UAS7 at Week 4 • Change from baseline in UAS7 at Week 12 (for US and US reference countries) • Change from baseline in ISS7 at Week 12 (except US and US reference countries) • Change from baseline in HSS7 at Week 12 The following responder secondary endpoints were to be analyzed using the Cochran-Mantel-Haenszel test adjusted by region: • Proportion of participants with UAS7<6 at Week 12 • Proportion of participants with UAS7=0 at Week 12 Participants who received selected prohibited medications and/or rescue medications were to be considered as non-responders for time points after the medication usage. For other participants, all available data including those collected during the off-treatment period were to be used to determine the responder/non-responder status. Missing data were to be considered as non-responders.

[1] = Week 10, 400 mg TID, ITT population
[2] = Week 10, 400 mg TID, Omalizumab-Naïve
[3] = Week 10, 400 mg TID, Prior Omalizumab Use
[4] = Week 10, 400 mg TID, omalizumab-naive participants
[5] = Week 11, 400 mg BID, ITT population
[6] = Week 11, 400 mg BID, Omalizumab-Naïve
[7] = Week 11, 400 mg BID, Prior Omalizumab Use
[8] = Week 11, 400 mg BID, omalizumab-naive participants
[9] = Week 11, 400 mg QPM, ITT population
[10] = Week 11, 400 mg QPM, Omalizumab-Naïve
[11] = Week 11, 400 mg QPM, Prior Omalizumab Use
[12] = Week 11, 400 mg QPM, omalizumab-naive participants
[13] = Week 11, 400 mg TID, ITT population
[14] = Week 11, 400 mg TID, Omalizumab-Naïve

CC(C)(C=C(C#N)C(=O)N1CCC[C@@H](n2nc(-c3ccc(Oc4ccccc4)cc3F)c3c(N)ncnc32)C1)N1CCN(C2COC2)CC1 [rilzabrutinib, (R)-2-[3-[4-amino-3-(2-fluoro-4-phenoxy-phenyl)pyrazolo[3,4-d]pyrimidin-1-yl]piperidine-1-carbonyl]-4-methyl-4-[4-(oxetan-3-yl)piperazin-1-yl]pent-2-enenitrile]
Non-responder, UAS7 reduction from baseline of 10 points or more [1]: 14 (34.1) n (%)
OR for rilzabrutinib vs. placebo, UAS7 reduction of 10 points or more [1]: 2.018
RRD (%) for rilzabrutinib vs. placebo, UAS7 reduction of 10 points or more [1]: 15.7 %
Responder, UAS7 reduction from baseline of 10 points or more [1]: 27 (65.9) n (%)
UAS7 Change from baseline Median [2]: −20.00
UAS7 Mean (SD) [2]: 12.61 (9.89)
UAS7 Median [2]: 12.83
UAS7 Percent change from baseline Mean (SD) [2]: −58.08 (31.82) %
UAS7 Percent change from baseline Median [2]: −59.49%
UAS7 Change from baseline Mean (SD) [3]: −25.19 (15.27)
UAS7 Change from baseline Median [3]: −25.08
UAS7 Mean (SD) [3]: 7.83 (11.43)
UAS7 Median [3]: 4.00
UAS7 Percent change from baseline Mean (SD) [3]: −73.42 (30.92) %
UAS7 Percent change from baseline Median [3]: −84.09%
Non-responder, UAS7 reduction from baseline of 10 points or more [4]: 12 (34.3) n (%)
OR for rilzabrutinib vs. placebo, UAS7 reduction of 10 points or more [4]: 2.327
RRD (%) for rilzabrutinib vs. placebo, UAS7 reduction of 10 points or more [4]: 19.8 %
Responder, UAS7 reduction from baseline of 10 points or more [4]: 23 (65.7) n (%)
Non-responder, UAS7 reduction from baseline of 10 points or more [5]: 19 (46.3) n (%)
OR for rilzabrutinib vs. placebo, UAS7 reduction of 10 points or more [5]: 1.009
RRD (%) for rilzabrutinib vs. placebo, UAS7 reduction of 10 points or more [5]: 0.2 %
Responder, UAS7 reduction from baseline of 10 points or more [5]: 22 (53.7) n (%)
UAS7 Change from baseline Mean (SD) [6]: −14.86 (11.83)
UAS7 Change from baseline Median [6]: −19.00
UAS7 Mean (SD) [6]: 15.06 (13.80)
UAS7 Percent change from baseline Mean (SD) [6]: −51.82 (39.20) %
UAS7 Percent change from baseline Median [6]: −57.14%
UAS7 Change from baseline Mean (SD) [7]: −20.43 (19.00)
UAS7 Change from baseline Median [7]: −25.00
UAS7 Mean (SD) [7]: 11.57 (15.45)
UAS7 Median [7]: 2.00
UAS7 Percent change from baseline Mean (SD) [7]: −59.15 (51.57) %
UAS7 Percent change from baseline Median [7]: −92.59%
Non-responder, UAS7 reduction from baseline of 10 points or more [8]: 16 (45.7) n (%)
OR for rilzabrutinib vs. placebo, UAS7 reduction of 10 points or more [8]: 1.183
RRD (%) for rilzabrutinib vs. placebo, UAS7 reduction of 10 points or more [8]: 4.4 %
Responder, UAS7 reduction from baseline of 10 points or more [8]: 19 (54.3) n (%)
Non-responder, UAS7 reduction from baseline of 10 points or more [9]: 19 (50.0) n (%)
OR for rilzabrutinib vs. placebo, UAS7 reduction of 10 points or more [9]: 0.945
RRD (%) for rilzabrutinib vs. placebo, UAS7 reduction of 10 points or more [9]: −1.3 %
Responder, UAS7 reduction from baseline of 10 points or more [9]: 19 (50.0) n (%)
UAS7 Change from baseline Mean (SD) [10]: −11.28 (9.60)
UAS7 Change from baseline Median [10]: −11.00
UAS7 Mean (SD) [10]: 21.17 (11.16)
UAS7 Median [10]: 20.00
UAS7 Percent change from baseline Mean (SD) [10]: −35.34 (30.18) %
UAS7 Percent change from baseline Median [10]: −34.19%
UAS7 Change from baseline Mean (SD) [11]: −23.00 (NC)
UAS7 Change from baseline Median [11]: −23.00
UAS7 Mean (SD) [11]: 18.00 (NC)
UAS7 Median [11]: 18.00
UAS7 Percent change from baseline Mean (SD) [11]: −56.10 (NC) %
UAS7 Percent change from baseline Median [11]: −56.10%
Non-responder, UAS7 reduction from baseline of 10 points or more [12]: 19 (51.4) n (%)
OR for rilzabrutinib vs. placebo, UAS7 reduction of 10 points or more [12]: 0.946
RRD (%) for rilzabrutinib vs. placebo, UAS7 reduction of 10 points or more [12]: −1.3 %
Responder, UAS7 reduction from baseline of 10 points or more [12]: 18 (48.6) n (%)
Non-responder, UAS7 reduction from baseline of 10 points or more [13]: 14 (34.1) n (%)
OR for rilzabrutinib vs. placebo, UAS7 reduction of 10 points or more [13]: 1.624
RRD (%) for rilzabrutinib vs. placebo, UAS7 reduction of 10 points or more [13]: 10.3 %
Responder, UAS7 reduction from baseline of 10 points or more [13]: 27 (65.9) n (%)
UAS7 Change from baseline Median [14]: −17.00
UAS7 Median [14]: 13.00
UAS7 Percent change from baseline Mean (SD) [14]: −56.01 (34.22) %
UAS7 Percent change from baseline Median [14]: −60.00%
